The supplement of paper PMC11061612

Columns and labels:
Assay in all cases: combination Emax (second highest fraction inhibited in the dose matrix, 72 h); higher = more inhibition; extreme values may be limits of the assay
[1] = tested on: MKN28 (Gastric Carcinoma)
In short: (§1)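 Cell lines grown in DMEM/F12 or RPMI with 10% FBS were plated in 1536-well plates and held 24 hours at 37°C, 5% CO2 before 72 hours of exposure to two-drug dose matrices, with DMSO typically at 0.2%. CellTiter-Glo 2.0 luminescence gave viability, which was converted to inhibition. Vehicle wells were set to 0 and blank wells to 1. Combination Emax is the second-highest inhibition in the matrix, and Bliss excess is the observed combination effect minus the expected EA + EB − EA·EB, where EA and EB are the single-agent effects.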

[2] = tested on: TE-6 (Esophageal Squamous Cell Carcinoma)
In short: as §1

[3] = tested on: SW837 (Colorectal Carcinoma)
In short: as §1

[4] = tested on: GR-ST (B-Lymphoblastic Leukemia)
In short: as §1

[5] = tested on: P12-ICHIKAWA (T-Lymphoblastic Leukemia)
In short: as §1

[6] = tested on: EVSA-T (Breast Carcinoma)
In short: as §1

[7] = tested on: NCI-H847 (Small Cell Lung Carcinoma)
In short: as §1

NCI-H2818 (Mesothelioma) = tested on: NCI-H2818 (Mesothelioma)
In short: as §1

[8] = tested on: DiFi (Colorectal Carcinoma)
In short: as §1

LN-18 (Glioblastoma) = tested on: LN-18 (Glioblastoma)
In short: as §1

U251 (Low Grade Glioma) = tested on: U251 (Low Grade Glioma)
In short: as §1

TC-71 (Ewing's Sarcoma) = tested on: TC-71 (Ewing's Sarcoma)
In short: as §1

ES8 (Ewing's Sarcoma) = tested on: ES8 (Ewing's Sarcoma)
In short: as §1

WIL2-NS (Non-Cancerous) = tested on: WIL2-NS (Non-Cancerous)
In short: as §1

ES1 (Ewing's Sarcoma) = tested on: ES1 (Ewing's Sarcoma)
In short: as §1

[9] = tested on: KYSE-180 (Esophageal Squamous Cell Carcinoma)
In short: as §1

[10] = tested on: K-562 (Chronic Myelogenous Leukemia)
In short: as §1

WM-115 (Melanoma) = tested on: WM-115 (Melanoma)
In short: as §1

MEL-JUSO (Melanoma) = tested on: MEL-JUSO (Melanoma)
In short: as §1

[11] = tested on: HDQ-P1 (Breast Carcinoma)
In short: as §1

For `CN(CCO)CC[C@H](CSc1ccccc1)Nc1ccc(S(=O)(=O)NC(=O)c2ccc(N3CCC([C@@H](O)c4ccccc4-c4ccc(Cl)cc4)CC3)cc2)cc1S(=O)(=O)C(F)(F)F` [AZD4320] + Cn1cnc2c(F)c(Nc3ccc(Br)cc3Cl)c(C(=O)NOCCO)cc21 [Selumetinib] (first compound max 1 µM, 7x7, partner max 3 µM), the “combination Emax” value [1] was 0.356, the “combination Emax” value [2] was 0.593 and the “combination Emax” value [3] was 0.489. The “combination Emax” value [4] was 0.494, the “combination Emax” value [5] was 1 and the “combination Emax” value [6] was 0.506. For the same compound, the “combination Emax” value [7] was 1, the “combination Emax” value (NCI-H2818 (Mesothelioma)) was 0.31 and the “combination Emax” value [8] was 0.951. For the same compound, the “combination Emax” value (LN-18 (Glioblastoma)) was 0.329, the “combination Emax” value (U251 (Low Grade Glioma)) was 0.651 and the “combination Emax” value (TC-71 (Ewing's Sarcoma)) was 0.985. For the same compound, the “combination Emax” value (ES8 (Ewing's Sarcoma)) was 0.99, the “combination Emax” value (WIL2-NS (Non-Cancerous)) was 0.633 and the “combination Emax” value (ES1 (Ewing's Sarcoma)) was 0.786. The “combination Emax” value [9] was 0.19, the “combination Emax” value [10] was 0.516 and the “combination Emax” value (WM-115 (Melanoma)) was 0.878. The “combination Emax” value (MEL-JUSO (Melanoma)) was 0.432 and the “combination Emax” value [11] was 0.771.
With `Cc1c2c(nn1C)CSCc1cc(n(C)n1)CSc1cc(c3ccccc3c1)OCCCc1c(C(=O)O)n(C)c3c-2c(Cl)ccc13` [AZD5991] + C1CN(CCC1(C(=O)N[C@@H](CCO)C2=CC=C(C=C2)Cl)N)C3=NC=NC4=C3C=CN4 [Capivasertib] (first compound max 1 µM, 7x7, partner max 3 µM) the “combination Emax” value [1] was 0.12, the “combination Emax” value [2] was 0.811 and the “combination Emax” value [3] was 0.121. For the same compound, the “combination Emax” value [4] was 0.38, the “combination Emax” value [5] was 1 and the “combination Emax” value [6] was 1. For the same compound, the “combination Emax” value [7] was 0.78, the “combination Emax” value (NCI-H2818 (Mesothelioma)) was 0.258 and the “combination Emax” value [8] was 0.438. The “combination Emax” value (LN-18 (Glioblastoma)) was 0.409, the “combination Emax” value (U251 (Low Grade Glioma)) was 0.224 and the “combination Emax” value (TC-71 (Ewing's Sarcoma)) was 0.47. For the same compound, the “combination Emax” value (ES8 (Ewing's Sarcoma)) was 0.679, the “combination Emax” value (WIL2-NS (Non-Cancerous)) was 0.666 and the “combination Emax” value (ES1 (Ewing's Sarcoma)) was 0.955. The “combination Emax” value [9] was 0.922, the “combination Emax” value [10] was 0.374 and the “combination Emax” value (WM-115 (Melanoma)) was 0.584. For the same compound, the “combination Emax” value (MEL-JUSO (Melanoma)) was 0.346 and the “combination Emax” value [11] was 0.232.
In the case of `Cc1c2c(nn1C)CSCc1cc(n(C)n1)CSc1cc(c3ccccc3c1)OCCCc1c(C(=O)O)n(C)c3c-2c(Cl)ccc13` [AZD5991] + CC1(C)CCC(CN2CCN(c3ccc(C(=O)NS(=O)(=O)c4ccc(NCC5CCOCC5)c([N+](=O)[O-])c4)c(Oc4cnc5[nH]ccc5c4)c3)CC2)=C(c2ccc(Cl)cc2)C1 [Venetoclax] (first compound max 1 µM, 7x7, partner max 1 µM), the “combination Emax” value [1] is reported as 0.126, the “combination Emax” value [2] is reported as 0.677 and the “combination Emax” value [3] is reported as 0.184. The “combination Emax” value [4] was 0.124, the “combination Emax” value [5] was 1 and the “combination Emax” value [6] was 1. For the same compound, the “combination Emax” value [7] was 0.98, the “combination Emax” value (NCI-H2818 (Mesothelioma)) was 0.387 and the “combination Emax” value [8] was 0.624. For the same compound, the “combination Emax” value (LN-18 (Glioblastoma)) was 0.374, the “combination Emax” value (U251 (Low Grade Glioma)) was 0.239 and the “combination Emax” value (TC-71 (Ewing's Sarcoma)) was 0.831. The “combination Emax” value (ES8 (Ewing's Sarcoma)) was 0.864, the “combination Emax” value (WIL2-NS (Non-Cancerous)) was 0.23 and the “combination Emax” value (ES1 (Ewing's Sarcoma)) was 0.93. For the same compound, the “combination Emax” value [9] was 0.922, the “combination Emax” value [10] was 0.226 and the “combination Emax” value (WM-115 (Melanoma)) was 0.59. The “combination Emax” value (MEL-JUSO (Melanoma)) was 0.339 and the “combination Emax” value [11] was 0.216.
`Cc1c2c(nn1C)CSCc1cc(n(C)n1)CSc1cc(c3ccccc3c1)OCCCc1c(C(=O)O)n(C)c3c-2c(Cl)ccc13` [AZD5991] + CCN(CCO)CCCOc1ccc2c(Nc3cc(CC(=O)Nc4cccc(F)c4)[nH]n3)ncnc2c1 [AZD2811] (first compound max 1 µM, 7x7, partner max 1 µM) was tested, and the “combination Emax” value [1] was 0.329, the “combination Emax” value [2] was 0.715 and the “combination Emax” value [3] was 0.231. For the same compound, the “combination Emax” value [4] was 0.336, the “combination Emax” value [5] was 1 and the “combination Emax” value [6] was 1. The “combination Emax” value [7] was 0.973, the “combination Emax” value (NCI-H2818 (Mesothelioma)) was 0.287 and the “combination Emax” value [8] was 0.859. For the same compound, the “combination Emax” value (LN-18 (Glioblastoma)) was 0.701, the “combination Emax” value (U251 (Low Grade Glioma)) was 0.423 and the “combination Emax” value (TC-71 (Ewing's Sarcoma)) was 0.848. For the same compound, the “combination Emax” value (ES8 (Ewing's Sarcoma)) was 1, the “combination Emax” value (WIL2-NS (Non-Cancerous)) was 0.339 and the “combination Emax” value (ES1 (Ewing's Sarcoma)) was 0.983. For the same compound, the “combination Emax” value [9] was 0.942, the “combination Emax” value [10] was 0.43 and the “combination Emax” value (WM-115 (Melanoma)) was 0.232. For the same compound, the “combination Emax” value (MEL-JUSO (Melanoma)) was 0.592 and the “combination Emax” value [11] was 0.159.
For `Cc1c2c(nn1C)CSCc1cc(n(C)n1)CSc1cc(c3ccccc3c1)OCCCc1c(C(=O)O)n(C)c3c-2c(Cl)ccc13` [AZD5991] + CN(C)CCCOc1ccc(-c2ccc3ncc4c(c3c2)n(C2CCOCC2)c(=O)n4C)cn1 [AZD0156] (first compound max 1 µM, 7x7, partner max 1 µM), the “combination Emax” value [1] was 0.275, the “combination Emax” value [2] was 0.792 and the “combination Emax” value [3] was 0.208. The “combination Emax” value [4] was 0.502, the “combination Emax” value [5] was 0.994 and the “combination Emax” value [6] was 1. The “combination Emax” value [7] was 0.57, the “combination Emax” value (NCI-H2818 (Mesothelioma)) was 0.355 and the “combination Emax” value [8] was 0.252. For the same compound, the “combination Emax” value (LN-18 (Glioblastoma)) was 0.514, the “combination Emax” value (U251 (Low Grade Glioma)) was 0.607 and the “combination Emax” value (TC-71 (Ewing's Sarcoma)) was 0.463. The “combination Emax” value (ES8 (Ewing's Sarcoma)) was 0.385, the “combination Emax” value (WIL2-NS (Non-Cancerous)) was 0.388 and the “combination Emax” value (ES1 (Ewing's Sarcoma)) was 0.753. The “combination Emax” value [9] was 0.934, the “combination Emax” value [10] was 0.172 and the “combination Emax” value (WM-115 (Melanoma)) was 0.244. The “combination Emax” value (MEL-JUSO (Melanoma)) was 0.439 and the “combination Emax” value [11] was 0.195.
In the case of `Cc1c2c(nn1C)CSCc1cc(n(C)n1)CSc1cc(c3ccccc3c1)OCCCc1c(C(=O)O)n(C)c3c-2c(Cl)ccc13` [AZD5991] + C[C@@H]1COCCN1C2=NC(=NC(=C2)C3(CC3)[S@](=N)(=O)C)C4=C5C=CNC5=NC=C4 [AZD6738] (first compound max 1 µM, 7x7, partner max 10 µM), the “combination Emax” value [1] is reported as 0.405, the “combination Emax” value [2] is reported as 0.817 and the “combination Emax” value [3] is reported as 0.354. The “combination Emax” value [4] was 0.716, the “combination Emax” value [5] was 1 and the “combination Emax” value [6] was 1. For the same compound, the “combination Emax” value [7] was 0.994, the “combination Emax” value (NCI-H2818 (Mesothelioma)) was 0.496 and the “combination Emax” value [8] was 0.923. The “combination Emax” value (LN-18 (Glioblastoma)) was 0.842, the “combination Emax” value (U251 (Low Grade Glioma)) was 0.648 and the “combination Emax” value (TC-71 (Ewing's Sarcoma)) was 0.987. For the same compound, the “combination Emax” value (ES8 (Ewing's Sarcoma)) was 0.891, the “combination Emax” value (WIL2-NS (Non-Cancerous)) was 0.969 and the “combination Emax” value (ES1 (Ewing's Sarcoma)) was 1. For the same compound, the “combination Emax” value [9] was 0.979, the “combination Emax” value [10] was 0.864 and the “combination Emax” value (WM-115 (Melanoma)) was 0.471. The “combination Emax” value (MEL-JUSO (Melanoma)) was 0.684 and the “combination Emax” value [11] was 0.387.
